# Reference: PubChem BioAssay AID192 (DTP/NCI, 2004)
# “And” between values parts separate entries of the source, which are not always exact repeats. Identical values can stand only once. Toxic doses and inconclusive results are not listed.
# Test system: BDF1 mice, B16 melanoma ip, median survival T/C
# Experiment: NCI In Vivo Anticancer Drug Screen. Data for tumor model B16 Melanoma (intraperitoneal) in B6D2F1 (BDF1) mice
# Conditions: endpoint: median survival time, higher = longer survival
# How it was run: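 Each result divides a survival or tumor-size measurement in the compound-treated group by the same measurement in the vehicle group.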
# [1] = dose: 50.0 mg/kg/injection, schedule: Q01DX009 (ip), vehicle: saline with Tween-80
# [2] = dose: 100.0 mg/kg/injection, schedule: Q01DX009 (ip), vehicle: saline with Tween-80
# [3] = dose: 200.0 mg/kg/injection, schedule: Q01DX009 (ip), vehicle: saline with Tween-80
# [4] = dose: 6.25 mg/kg/injection, schedule: Q01DX009 (ip), vehicle: water
# [5] = dose: 12.5 mg/kg/injection, schedule: Q01DX009 (ip), vehicle: water
# [6] = dose: 25.0 mg/kg/injection, schedule: Q01DX009 (ip), vehicle: water
# [7] = dose: 12.5 mg/kg/injection, schedule: Q01DX009 (ip), vehicle: saline with Tween-80
# [8] = dose: 25.0 mg/kg/injection, schedule: Q01DX009 (ip), vehicle: saline with Tween-80
# [9] = dose: 50.0 mg/kg/injection, schedule: Q01DX009 (ip), vehicle: water
# [10] = dose: 12.5 mg/kg/injection, schedule: Q01DX009 (ip), vehicle: Klucel (hydroxypropylcellulose) (HPC)
# [11] = dose: 25.0 mg/kg/injection, schedule: Q01DX009 (ip), vehicle: Klucel (hydroxypropylcellulose) (HPC)
# [12] = dose: 6.25 mg/kg/injection, schedule: Q01DX009 (ip), vehicle: saline with Tween-80
# [13] = dose: 100.0 mg/kg/injection, schedule: Q01DX009 (ip), vehicle: Klucel (hydroxypropylcellulose) (HPC)
# [14] = dose: 3.13 mg/kg/injection, schedule: Q01DX009 (ip), vehicle: saline with Tween-80
# [15] = dose: 25.0 mg/kg/injection, schedule: Q01DX009 (ip), vehicle: saline
# [16] = dose: 50.0 mg/kg/injection, schedule: Q01DX009 (ip), vehicle: saline
# [17] = dose: 100.0 mg/kg/injection, schedule: Q01DX009 (ip), vehicle: saline
smiles,measurement,setting,value
Nc1cc2nc3ccccc3sc-2cc1=O,T/C,[1],93 % of control
same,T/C,[2],98 % of control
same,T/C,[3],94 % of control
NC(CNC(=O)CBr)C(=O)O (stereo not given),T/C,[4],109 % of control
same,T/C,[5],104 % of control
same,T/C,[6],122 % of control
S=P(N1CC1)(N1CC1)N1CC1,T/C,"dose: 0.5 mg/kg/injection, schedule: Q01DX009 (ip), vehicle: saline",104 % of control
same,T/C,"dose: 1.0 mg/kg/injection, schedule: Q02DX009 (ip), vehicle: saline",106 % of control and 120 % of control
same,T/C,"dose: 1.5 mg/kg/injection, schedule: Q01DX009 (ip), vehicle: saline",110 % of control and 120 % of control
same,T/C,"dose: 1.5 mg/kg/injection, schedule: Q02DX009 (ip), vehicle: saline",112 % of control
same,T/C,"dose: 2.0 mg/kg/injection, schedule: Q02DX009 (ip), vehicle: saline",94 % of control and 111 % of control
same,T/C,"dose: 3.0 mg/kg/injection, schedule: Q01DX009 (ip), vehicle: saline",104 % of control and 111 % of control
same,T/C,"dose: 3.0 mg/kg/injection, schedule: Q02DX009 (ip), vehicle: saline",120 % of control
same,T/C,"dose: 4.0 mg/kg/injection, schedule: Q02DX009 (ip), vehicle: saline",119 % of control and 120 % of control
same,T/C,"dose: 6.0 mg/kg/injection, schedule: Q01DX009 (ip), vehicle: saline",86 % of control
same,T/C,"dose: 6.0 mg/kg/injection, schedule: Q02DX009 (ip), vehicle: saline",116 % of control and 117 % of control
same,T/C,"dose: 8.0 mg/kg/injection, schedule: Q02DX009 (ip), vehicle: saline",88 % of control and 122 % of control
same,T/C,"dose: 12.0 mg/kg/injection, schedule: Q02DX009 (ip), vehicle: saline",86 % of control
C=C1C(=O)OC2C1CC1OC2C(C)CCC/C(C)=C\CCC1(C)O (stereo not given),T/C,[7],97 % of control
same,T/C,[8],101 % of control
same,T/C,[1],100 % of control
same,T/C,[2],104 % of control
Cc1cnc([Se])[nH]c1=O,T/C,[4],100 % of control
same,T/C,[5],96 % of control
same,T/C,[6],96 % of control
same,T/C,[9],101 % of control
O=NN(CCBr)C(=O)Nc1ccccc1,T/C,[7],152 % of control
same,T/C,[8],202 % of control
same,T/C,"dose: 37.5 mg/kg/injection, schedule: Q01DX009 (ip), vehicle: saline with Tween-80",171 % of control
same,T/C,[1],177 % of control
CCc1cc(C)cc(OC(=O)Nc2ccccc2)c1,T/C,[2],97 % of control
same,T/C,[3],93 % of control
same,T/C,"dose: 400.0 mg/kg/injection, schedule: Q01DX009 (ip), vehicle: saline with Tween-80",100 % of control
CCN(C(=O)CCl)C(C)(C)C(SSSC(c1ccc(Cl)cc1)C(C)(C)N(CC)C(=O)CCl)c1ccc(Cl)cc1 (stereo not given),T/C,[10],100 % of control
same,T/C,[11],98 % of control
CCc1nc(N)nc(N)c1-c1ccc(Cl)c(Cl)c1.[Cl][Pd][Cl],T/C,"dose: 6.25 mg/kg/injection, schedule: Q01DX009 (ip), vehicle: saline",97 % of control
O=C(O)C1CCCCC1C(=O)Nc1ccc(F)cc1 (stereo not given),T/C,[8],105 % of control
same,T/C,[1],105 % of control
same,T/C,[2],88 % of control and 96 % of control
CC(C)(C)c1ccc(C(=O)C2CC2)cc1,T/C,[8],94 % of control
same,T/C,[1],99 % of control
same,T/C,[2],95 % of control
CN(C)CCOc1ccc2c(c1)C/C(=C/c1ncc([N+](=O)[O-])n1C)C2=O,T/C,[12],109 % of control
same,T/C,[7],100 % of control
same,T/C,[8],96 % of control
same,T/C,[1],99 % of control
same,T/C,[2],109 % of control
CCCCCCCCCCCCNC(=O)CCl,T/C,[13],104 % of control
same,T/C,"dose: 200.0 mg/kg/injection, schedule: Q01DX009 (ip), vehicle: Klucel (hydroxypropylcellulose) (HPC)",102 % of control
same,T/C,"dose: 400.0 mg/kg/injection, schedule: Q01DX009 (ip), vehicle: Klucel (hydroxypropylcellulose) (HPC)",100 % of control
CC(=O)NC(Cc1ccc(N(CCCl)CCCl)cc1)C(=O)O (stereo not given),T/C,[14],109 % of control
same,T/C,[12],117 % of control
same,T/C,[8],113 % of control
C1=NCCCN1,T/C,[15],114 % of control
same,T/C,[16],117 % of control
same,T/C,[17],113 % of control
O=C1C(=O)c2ccccc2C(O)=C1CC=C(Cl)Cl,T/C,"dose: 6.2 mg/kg/injection, schedule: Q01DX009 (ip), vehicle: water",93 % of control
same,T/C,"dose: 12.5 mg/kg/injection, schedule: Q01DX009 (ip), vehicle: saline",100 % of control
same,T/C,[5],93 % of control
same,T/C,[15],102 % of control
same,T/C,[6],100 % of control
same,T/C,"dose: 25.0 mg/kg/injection, schedule: Q01DX009 (oral), vehicle: water",103 % of control and 106 % of control
same,T/C,[16],100 % of control
same,T/C,[9],100 % of control
same,T/C,"dose: 50.0 mg/kg/injection, schedule: Q01DX009 (oral), vehicle: saline",105 % of control
same,T/C,"dose: 50.0 mg/kg/injection, schedule: Q01DX009 (oral), vehicle: water",106 % of control
same,T/C,"dose: 75.0 mg/kg/injection, schedule: Q01DX009 (oral), vehicle: water",110 % of control
same,T/C,"dose: 100.0 mg/kg/injection, schedule: Q01DX009 (oral), vehicle: saline",116 % of control
same,T/C,"dose: 100.0 mg/kg/injection, schedule: Q01DX009 (oral), vehicle: water",106 % of control and 113 % of control
same,T/C,"dose: 200.0 mg/kg/injection, schedule: Q01DX009 (oral), vehicle: water",106 % of control
COc1ccccc1N1C(=O)CSC1=S,T/C,[10],95 % of control
same,T/C,[11],105 % of control
same,T/C,"dose: 50.0 mg/kg/injection, schedule: Q01DX009 (ip), vehicle: Klucel (hydroxypropylcellulose) (HPC)",87 % of control
same,T/C,[13],105 % of control
CC1(C)N=C(N)N=C(N)N1c1ccc(OCCCCNC(=O)c2ccc(S(=O)(=O)F)cc2)c(Cl)c1,T/C,[7],108 % of control
same,T/C,[8],112 % of control
same,T/C,[1],111 % of control
same,T/C,[2],112 % of control
ClC1=C(Cl)C(Cl)=C(Cl)C1=Cc1ccccc1,T/C,"dose: 1.56 mg/kg/injection, schedule: Q01DX009 (ip), vehicle: saline with Tween-80",97 % of control
same,T/C,[14],92 % of control
same,T/C,[12],102 % of control
same,T/C,[7],111 % of control
same,T/C,[8],95 % of control
CCN(CC)P(=O)(N1CC1C)N1CC1C (stereo not given),T/C,"dose: 9.3 mg/kg/injection, schedule: Q01DX009 (ip), vehicle: saline",123 % of control
same,T/C,"dose: 18.7 mg/kg/injection, schedule: Q01DX009 (ip), vehicle: saline",112 % of control
same,T/C,"dose: 37.5 mg/kg/injection, schedule: Q01DX009 (ip), vehicle: saline",99 % of control
O=[N+]([O-])c1ccc2c(c1)Cc1cc(Br)ccc1-2,T/C,"dose: 100.0 mg/kg/injection, schedule: Q04DX003 (ip), vehicle: Klucel (hydroxypropylcellulose) (HPC)",97 % of control
same,T/C,"dose: 200.0 mg/kg/injection, schedule: Q04DX003 (ip), vehicle: Klucel (hydroxypropylcellulose) (HPC)",100 % of control
same,T/C,"dose: 400.0 mg/kg/injection, schedule: Q04DX003 (ip), vehicle: Klucel (hydroxypropylcellulose) (HPC)",100 % of control
NC(Cn1ccc(=O)c(O)c1)C(=O)O (stereo not given),T/C,[16],109 % of control
same,T/C,"dose: 100.0 mg/kg/injection, schedule: Q01DX007 (ip), vehicle: saline with Tween-80",98 % of control
same,T/C,[17],107 % of control
same,T/C,"dose: 200.0 mg/kg/injection, schedule: Q01DX007 (ip), vehicle: saline with Tween-80",88 % of control
same,T/C,"dose: 200.0 mg/kg/injection, schedule: Q01DX009 (ip), vehicle: saline",109 % of control
same,T/C,"dose: 294.0 mg/kg/injection, schedule: Q01DX007 (ip), vehicle: saline with Tween-80",117 % of control
same,T/C,"dose: 300.0 mg/kg/injection, schedule: Q01DX007 (ip), vehicle: saline with Tween-80",86 % of control
same,T/C,"dose: 367.5 mg/kg/injection, schedule: Q01DX007 (oral), vehicle: saline with Tween-80",103 % of control
same,T/C,"dose: 420.0 mg/kg/injection, schedule: Q01DX007 (ip), vehicle: saline with Tween-80",96 % of control
same,T/C,"dose: 525.0 mg/kg/injection, schedule: Q01DX007 (oral), vehicle: saline with Tween-80",96 % of control
same,T/C,"dose: 750.0 mg/kg/injection, schedule: Q01DX007 (oral), vehicle: saline with Tween-80",98 % of control
